Assay results from patent publication US20240158446A1, “CYCLIC COMPOUND HAVING SELECTIVE INHIBITORY ACTION ON KRAS OVER HRAS AND NRAS” (CHUGAI SEIYAKU KABUSHIKI KAISHA, priority 2021, published 2024).

How the values were obtained:
[1] = molecular target: GDP-bound HRAS wild-type protein (Homo sapiens, UniProt P01112); assay: Binding to HRAS by surface plasmon resonance (SPR), Single Cycle Kinetics; details: SPR, GDP-bound HRAS wild-type protein vs GDP-bound KRAS wild-type protein
[2] = molecular target: GDP-bound NRAS wild-type protein (Homo sapiens, UniProt P01111); assay: Binding to NRAS by surface plasmon resonance (SPR), Single Cycle Kinetics; details: SPR, GDP-bound NRAS wild-type protein vs GDP-bound KRAS wild-type protein
Chain of GDP-bound NRAS wild-type protein (P01111 whole entry): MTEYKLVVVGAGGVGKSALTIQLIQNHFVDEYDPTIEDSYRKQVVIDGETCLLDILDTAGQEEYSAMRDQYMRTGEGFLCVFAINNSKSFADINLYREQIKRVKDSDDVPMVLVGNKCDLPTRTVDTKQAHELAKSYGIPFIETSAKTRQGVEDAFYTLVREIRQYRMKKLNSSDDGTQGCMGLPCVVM

Chain of GDP-bound HRAS wild-type protein (P01112 whole entry): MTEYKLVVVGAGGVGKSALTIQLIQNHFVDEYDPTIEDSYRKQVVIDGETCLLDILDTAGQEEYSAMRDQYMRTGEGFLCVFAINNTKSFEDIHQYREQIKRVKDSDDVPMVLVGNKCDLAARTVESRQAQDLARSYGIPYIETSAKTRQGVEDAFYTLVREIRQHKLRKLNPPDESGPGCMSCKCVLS

Row | Structure (SMILES) | HRAS/KRAS (ratio of KD value for HRAS to KD value for KRAS) [1] | NRAS/KRAS (ratio of KD value for NRAS to KD value for KRAS) [2] | HRAS/KRAS (ratio of KD value for HRAS to KD value for KRAS) ([1]; KD ratio class) | NRAS/KRAS (ratio of KD value for NRAS to KD value for KRAS) ([2]; KD ratio class)
1 | CCC(CC)[C@H]1C(=O)N(C)[C@H](C(=O)N(C)C)CC(=O)N(C)[C@@H](COC)C(=O)N[C@@H]([C@@H](C)CC)C(=O)N(C)CC(=O)N(C)[C@H]2C/C=C\CCN(C2=O)[C@@H](Cc2ccc(C)cc2)C(=O)N(C)CC(=O)N[C@@H](CCc2ccc(Cl)c(Cl)c2)C(=O)N2CCCCC[C@H]2C(=O)NC2(CC(C)(C)C2)C(=O)N1C [PP2974] | A (a compound having 10 or more and less than 20 is denoted as A) | A (a compound having 10 or more and less than 20 is denoted as A) |  | 
2 | CCC[C@H]1C(=O)N[C@@H]([C@@H](C)CC)C(=O)N(C)CC(=O)N(C)[C@H]2C/C=C\CCN(C2=O)[C@@H](Cc2ccc(C)cc2)C(=O)N(C)CC(=O)N[C@@H](CCc2ccc(C(F)(F)F)c(Cl)c2)C(=O)N2C[C@H](CC)C[C@H]2C(=O)NC2(CCC2)C(=O)N(C)[C@@H](C2CCCC2)C(=O)N(C)[C@H](C(=O)N(C)C)CC(=O)N1C [PP2237] | A (a compound having 10 or more and less than 20 is denoted as A) | A (a compound having 10 or more and less than 20 is denoted as A) |  | 
3 | CCC[C@H]1C(=O)N[C@@H]([C@@H](C)CC)C(=O)N(C2CC2)CC(=O)N(C)[C@H]2C/C=C\CCN(C2=O)[C@@H](CC2CCCCC2)C(=O)N(C)CC(=O)N[C@@H](CCc2ccc(C(F)(F)F)c(OC)c2)C(=O)N2C[C@H](OCC)C[C@H]2C(=O)N(C)C2(CCC2)C(=O)N(C)[C@@H](C2CCCC2)C(=O)N(C)[C@H](C(=O)N(C)C)CC(=O)N1C [PP2340] | B (a compound having 3 or more and less than 10 is denoted as B) | B (a compound having 3 or more and less than 10 is denoted as B) |  | 
4 | CCO[C@@H]1C[C@H]2C(=O)NC3(CCC3)C(=O)N(C)[C@@H](C3CCCC3)C(=O)N(C)[C@H](C(=O)N(C)CC)CC(=O)N(C)[C@H]3CCCCCCc4ccc(cc4)C[C@@H](C(=O)N(C)CC(=O)N[C@@H](CCc4ccc(C(F)(F)F)c(OC)c4)C(=O)N2C1)N1CC/C=C\C[C@@H](C1=O)N(C)C(=O)CN(C)C(=O)[C@H]([C@@H](C)CC)NC3=O [PP2263] | A (a compound having 10 or more and less than 20 is denoted as A) | A (a compound having 10 or more and less than 20 is denoted as A) |  | 
5 | CCO[C@@H]1C[C@H]2C(=O)NC3(CCC3)C(=O)N(C)[C@@H](C3CCCC3)C(=O)N(C)[C@H](C)CC(=O)N(C)[C@@H](CC(C)C)C(=O)N[C@@H]([C@@H](C)CC)C(=O)N(C)CC(=O)N(C)[C@H]3C/C=C\CCN(C3=O)[C@@H](Cc3ccc(F)cc3C)C(=O)N(C)CC(=O)N[C@@H](CCc3cc(F)c(C(F)(F)F)c(F)c3)C(=O)N2C1 [PP1493] |  |  | B (a compound having 3 or more and less than 10 is denoted as B) | B (a compound having 3 or more and less than 10 is denoted as B)
6 | CC[C@@H]1C[C@H]2C(=O)NC3(CCCC3)C(=O)N(C)[C@@H](C3CCCC3)C(=O)N(C)[C@H](C(=O)N(C)C)CC(=O)N(C)[C@@H](CC(C)C)C(=O)N[C@@H]([C@@H](C)CC)C(=O)N(C)CC(=O)N(C)[C@H]3C/C=C\CCN(C3=O)[C@@H](Cc3ccc(C)cc3)C(=O)N(C)CC(=O)N[C@@H](CCc3cc(F)c(C(F)(F)F)c(F)c3)C(=O)N2C1 [PP2191] | B (a compound having 3 or more and less than 10 is denoted as B) | A (a compound having 10 or more and less than 20 is denoted as A) |  | 
